Measurements: patent US4868158A, “Method for the production of a macromolecular carrier loaded with a biologically active substance” (Oncholab AB, priority 1985, dated 1989)

System: WEHI-3B cells, a murine monomyelocytic cell line
Conditions: 1.0 million WEHI-3B cells i.p.; 1.9 mg AD-32/kg/day i.p. for five days
Protocol: Balb/C mice were injected intraperitonally (i.p.) with 1.0 million WEHI-3B cells, a murine monomyelocytic cell line. […] The AD-32 was administered i.p. dissolved in a mixture of ethanol and castor oil.

CCCCC(=O)OCC(=O)C1(O)Cc2c(O)c3c(c(O)c2C(OC2CC(NC(=O)C(F)(F)F)C(O)C(C)O2)C1)C(=O)c1c(OC)cccc1C3=O (stereo not shown) [AD-32, N-trifluoroacetyladriamycin-14-valerate]
ILS, Increased Life Span: 2%
